Structures can show the parent of a compound that is named as a salt. Where two headings read alike, the source gives them in different places.
Legend:
[1] = target: T1, human NTCP (Homo sapiens, UniProt Q14973); assay: Screening taurocholate uptake assay (96-well, [14C]taurocholate, 10 µM drug)
T1 sequence (Q14973 1-349): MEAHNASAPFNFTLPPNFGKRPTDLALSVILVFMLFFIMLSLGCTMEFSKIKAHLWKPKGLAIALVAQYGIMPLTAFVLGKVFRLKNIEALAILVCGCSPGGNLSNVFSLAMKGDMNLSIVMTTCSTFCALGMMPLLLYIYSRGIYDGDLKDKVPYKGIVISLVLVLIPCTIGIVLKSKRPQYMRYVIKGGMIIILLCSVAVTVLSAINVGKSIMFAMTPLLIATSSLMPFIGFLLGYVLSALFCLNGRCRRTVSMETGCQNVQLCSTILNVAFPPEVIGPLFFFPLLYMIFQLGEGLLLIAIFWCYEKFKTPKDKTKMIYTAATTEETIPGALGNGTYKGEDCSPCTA

[2] = target: T1, human NTCP; assay: Screening fluorescent competitive Myrcludex B-FITC binding assay (96-well, 10 µM drug)
[3] = Prestwick library screen, 10 µM drug, B-score of taurocholate uptake
[4] = combined ranking from functional and binding assay B-scores
[5] = Prestwick library screen, 10 µM drug, B-score of Myrcludex B-FITC binding
[6] = combined ranking from functional and binding screening assays
[7] = screen, 10 µM drug, taurocholate uptake
[8] = screen, 10 µM drug, Myrcludex B-FITC binding
[9] = Prestwick library screen, taurocholate uptake, 10 µM drug
[10] = ranking score beside the functional and binding assay B-scores of the screen
[11] = Prestwick library screen, Myrcludex B-FITC binding, 10 µM drug

| SMILES | B-score functional assay [1, 3] | Ranking score [1, 4] | B-score binding assay [2, 5] | Ranking score [1, 6] | B-score functional assay [1, 7] | B-score binding assay [2, 8] | B-score functional assay [1, 9] | Ranking score [1, 10] | B-score binding assay [2, 11] | further results |
| --- | --- | --- | --- | --- | --- | --- | --- | --- | --- | --- |
| Cn1cnc([N+](=O)[O-])c1Sc1ncnc2nc[nH]c12 [Azathioprine] | 1.292 | 1083.5 | 1.035 | – | – | – | – | – | – | – |
| CN1CCCC(n2nc(Cc3ccc(Cl)cc3)c3ccccc3c2=O)CC1 (centres unmarked) [Azelastine HCl] | 1.435 | 940.553 | 0.157 | – | – | – | – | – | – | – |
| CC[C@H]1OC(=O)[C@H](C)[C@@H](O[C@H]2C[C@@](C)(OC)[C@@H](O)[C@H](C)O2)[C@H](C)[C@@H](O[C@@H]2O[C@H](C)C[C@H](N(C)C)[C@H]2O)[C@](C)(O)C[C@@H](C)CN(C)[C@H](C)[C@@H](O)[C@]1(C)O [Azithromycin] | 0.119 | 972.082 | 2.513 | – | – | – | – | – | – | – |
| C[C@H]1[C@H](NC(=O)/C(=N\OC(C)(C)C(=O)O)c2csc(N)n2)C(=O)N1S(=O)(=O)O [Aztreonam] | 1.332 | 1061.36 | 0.858 | – | – | – | – | – | – | – |
| O=C([O-])CCNC(=O)c1ccc(/N=N/c2ccc(O)c(C(=O)[O-])c2)cc1.[Na+].[Na+] [Balsalazide Sodium] | – | – | – | 403.097 | -0.35 | -0.506 | – | – | – | – |
| CCOC(=O)[C@H](CCc1ccccc1)N[C@H]1CCc2ccccc2N(CC(=O)O)C1=O [Benazepril HCl] | 1.384 | 918.755 | 0.109 | – | – | – | – | – | – | – |
| CC(Cc1cccc(C(F)(F)F)c1)NCCOC(=O)c1ccccc1 (centres unmarked) [Benfluorex] | 0.848 | 1033.89 | 1.025 | – | – | – | – | – | – | – |
| CCCCOc1cc(C(=O)OCCN(CC)CC)ccc1N [Benoxinate hydrochloride] | – | – | – | 454.623 | 0.537 | -1.11 | – | – | – | – |
| O=C(CCCN1CCC(n2c(O)nc3ccccc32)CC1)c1ccc(F)cc1 [Benperidol] | – | – | – | 422.659 | 0.351 | -1.201 | – | – | – | – |
| CC1(C)S[C@@H]2[C@H](NC(=O)Cc3ccccc3)C(=O)N2[C@H]1C(=O)O.CC1(C)S[C@@H]2[C@H](NC(=O)Cc3ccccc3)C(=O)N2[C@H]1C(=O)O.c1ccc(CNCCNCc2ccccc2)cc1 [Benzathine benzylpenicillin] | – | – | – | – | – | – | -0.072 | 672.134 | 0.21 | – |
| CCCCNc1ccc(C(=O)OCCOCCOCCOCCOCCOCCOCCOCCOCCOC)cc1 [Benzonatate] | 0.062 | 933.857 | 2.274 | – | – | – | – | – | – | – |
| O=C(Oc1cccc2cccnc12)c1ccccc1 [Benzoxiquine] | – | – | – | 381.13 | -0.093 | -0.876 | – | – | – | – |
| NS(=O)(=O)c1cc2c(cc1Cl)N=C(CSCc1ccccc1)NS2(=O)=O [Benzthiazide] | – | – | – | – | – | – | -0.047 | 714.84 | 0.39 | – |
| CC1(C)S[C@@H]2[C@H](NC(=O)Cc3ccccc3)C(=O)N2[C@H]1C(=O)O [Benzylpenicillin sodium] | – | – | – | 344.346 | -0.043 | -1.247 | – | – | – | – |
| C[N+](C)(CCOc1ccccc1)Cc1ccccc1.O=C([O-])c1cc2ccccc2cc1O [Bephenium hydroxynaphthoate] | – | – | – | 452.073 | -0.101 | -0.482 | – | – | – | – |
| CC(C)COCC(CN(Cc1ccccc1)c1ccccc1)N1CCCC1 (centres unmarked) [Bepridil hydrochloride] | – | – | – | 392.989 | 1.07 | -1.626 | – | – | – | – |
| Cl.N[C@@H]1CCCCN(c2c(F)cc3c(=O)c(C(=O)O)cn(C4CC4)c3c2Cl)C1 [Besifloxacin hydrochloride] | 1.274 | 1087.71 | 1.112 | – | – | – | – | – | – | – |
| C[C@H]1C[C@H]2[C@@H]3CCC4=CC(=O)C=C[C@]4(C)[C@@]3(F)[C@@H](O)C[C@]2(C)[C@@]1(O)C(=O)CO [Betamethasone] | – | – | – | – | – | – | 0.975 | 747.052 | -0.13 | – |
| NCCc1cc[nH]n1 [Betazole hydrochloride] | – | – | – | – | – | – | 0.019 | 836.299 | 1.024 | – |
| CC(C[N+](C)(C)C)OC(N)=O (centres unmarked) [Bethanechol chloride] | 1.898 | 1067.05 | 0.661 | – | – | – | – | – | – | – |
| CC(C)(Oc1ccc(CCNC(=O)c2ccc(Cl)cc2)cc1)C(=O)O [Bezafibrate] | – | – | – | 430.871 | -1.123 | 0.184 | – | – | – | – |
| COc1ccccc1Oc1c(NS(=O)(=O)c2ccc(C(C)(C)C)cc2)nc(-c2ncccn2)nc1OCCO [Bosentan] | – | – | – | – | – | – | 0.07 | 688.78 | 0.008 | – |

| SMILES | B-score functional assay [1, 3] | Ranking score [1, 4] | B-score binding assay [2, 5] | Ranking score [1, 6] | B-score functional assay [1, 7] | B-score binding assay [2, 8] | B-score functional assay [1, 9] | Ranking score [1, 10] | B-score binding assay [2, 11] | further results |
| --- | --- | --- | --- | --- | --- | --- | --- | --- | --- | --- |
| CC[N+](C)(C)Cc1ccccc1Br [Bretylium tosylate] | – | – | – | 436.134 | -1.625 | 1.504 | – | – | – | – |
| Brc1c(NC2=NCCN2)ccc2nccnc12.O=C(O)C(O)C(O)C(=O)O [Brimondine L-Tartrate] | – | – | – | 294.551 | -1.091 | -0.57 | – | – | – | – |
| CCN[C@H]1CN(CCCOC)S(=O)(=O)c2sc(S(N)(=O)=O)cc21 [Brinzolamide] | – | – | – | – | – | – | 0.266 | 792.227 | 0.124 | – |
| CC(C)C[C@H]1C(=O)N2CCC[C@H]2[C@]2(O)O[C@](NC(=O)[C@@H]3C=C4c5cccc6[nH]c(Br)c(c56)C[C@H]4N(C)C3)(C(C)C)C(=O)N12.CS(=O)(=O)O [Bromocryptine mesylate] | – | – | – | 349.571 | -0.957 | -0.252 | – | – | – | – |
| CCN(CC)CCNC(=O)c1cc(Br)c(N)cc1OC [Bromopride] | 0.033 | 880.053 | 1.459 | – | – | – | – | – | – | – |
| O=C(CCCN1CCC(O)(c2ccc(Br)cc2)CC1)c1ccc(F)cc1 [Bromperidol] | – | – | – | – | – | – | 0.496 | 757.533 | -0.002 | – |
| COc1cc(OC)c(C(=O)CCCN2CCCC2)c(OC)c1.Cl [Buflomedil hydrochloride] | – | – | – | – | – | – | 2.687 | 823.499 | -0.086 | – |
| CCCCNc1cc(C(=O)O)cc(S(N)(=O)=O)c1Oc1ccccc1 [Bumetanide] | 0.161 | 907.588 | 1.043 | – | – | – | – | – | – | – |
| CCCCN(CCCC)CCCOC(=O)c1ccc(N)cc1 [Butacaine] | – | – | – | – | – | – | -0.185 | 672.37 | 0.529 | – |
| C=CCC1(CC(C)C)C(=O)NC(=O)NC1=O [Butalbital] | – | – | – | – | – | – | – | – | – | B-score functional assay [1]: -0.027; Ranking score [1]: 849.583; B-score binding assay [2]: 2.017 |
| CCCCOC(=O)c1ccc(N)cc1 [Butamben] | 0.768 | 1050.86 | 1.315 | – | – | – | – | – | – | – |
| CN(Cc1ccc(C(C)(C)C)cc1)Cc1cccc2ccccc12 [Butenafine Hydrochloride] | 1.115 | 986.495 | 0.435 | – | – | – | – | – | – | – |
| CCCCOC(=O)c1ccc(O)cc1 [Butylparaben] | – | – | – | – | – | – | 5.239 | 668.543 | -0.593 | – |
| CCCC[N+]1(C)[C@@H]2C[C@@H](OC(=O)[C@H](CO)c3ccccc3)C[C@H]1[C@@H]1O[C@@H]12.[Br-] (some centres unmarked) [Butylscopolammonium (n-) bromide] | – | – | – | 409.241 | -0.739 | -0.108 | – | – | – | – |
| Cn1c(=O)c2c(ncn2C)n(C)c1=O [Caffeine] | – | – | – | – | – | – | 0.363 | 818.709 | 0.154 | – |
| CC[C@@]1(O)C(=O)OCc2c1cc1n(c2=O)Cc2cc3ccccc3nc2-1 [Camptothecine (S,+)] | 0.986 | 879.695 | 0.08 | – | – | – | – | – | – | – |
| CCN(CC)CCNC(C(=O)OCCC(C)C)c1ccccc1.Cl.Cl (centres unmarked) [Camylofine chlorhydrate] | 1.768 | 947.253 | 0.138 | – | – | – | – | – | – | – |
| CCOc1nc2cccc(C(=O)O)c2n1Cc1ccc(-c2ccccc2-c2nnn[nH]2)cc1 [Candesartan] | – | – | – | – | – | – | 0.287 | 798.474 | 0.128 | – |
| C[C@]12CCC(=O)C=C1C=C[C@@H]1[C@@H]2CC[C@@]2(C)[C@H]1CC[C@@]2(O)CCC(=O)[O-].[K+] [Canrenoic acid potassium salt] | – | – | – | – | – | – | 0.356 | 751.562 | 0.007 | – |
| C[C@]12CCC(=O)C=C1C=C[C@@H]1[C@@H]2CC[C@@]2(C)[C@H]1CC[C@@]21CCC(=O)O1 [Canrenone] | – | – | – | 379.419 | -0.551 | -0.43 | – | – | – | – |
| C[C@H](CS)C(=O)N1CCC[C@H]1C(=O)O [Captopril] | – | – | – | – | – | – | – | 728.08 | 0.648 | – |
